From patent US12415794B2 (Edgewise Therapeutics, Inc., priority 2018, dated 2025) come the findings set out here.

By IC50 is commonly meant the point on the concentration scale where inhibition reaches its midpoint. Read a low IC50 as inhibition by little substance.

Assay [1] concerns the target T1, cardiac myofibrils (myosin ATPase).
T1 construct: frozen myofibril pellets obtained from cardiac tissue; from tissue
Put plainly: Cardiac Myofibril ATPase Assay (counter screen). The assay is classed as biochemical. As to conditions: myofibrils 1.0 mg/mL, KCl omitted. The procedure: (§1) Overview: Myosin ATPase activity is assessed by using a coupled reaction system, in which ADP generated by the myosin ATPase function is coupled to the disappearance of NADH through the pyruvate kinase/lactate dehydrogenase (PK-LDH) system. ATPase activity produces ADP, which is used as a substrate for PK to produce pyruvate and regenerate ATP. The pyruvate is then used as a substrate by LDH to oxidize NADH to NAD+. The rate of the reaction is monitored through the time-dependent disappearance of NADH using absorbance at 340 nm. Inhibition of ATPase activity by the assayed compounds is indicated by a reduced rate of NADH loss, relative to vehicle-treated controls, over the experimental time window. To assess the selectivity of the assayed compounds for skeletal myofibrils, the compounds are counter-screened in cardiac myofibrils.
Example 13: Cardiac Myofibril ATPase Assay
Following example 11, the counter screen was done using frozen myofibril pellets obtained from cardiac tissue. The assay was done in the same manner as above, with the following notable exceptions: the final well concentration of myofibrils was 1.0 mg/mL and KCl was omitted from the recipe.
Compounds of Table 1 to 3 were tested, and results of the assays appear in Tables 5a-5c herein. A=IC50 is less than or equal to 10 μM; B=IC50 is greater than 10 μM and less than 100 μM; C=IC50 is greater than 100 μM; and […].
(A counterscreen serves to expose hits that act by an unwanted route or on another target.)

In assay [2] the target is skeletal myofibrils (myosin ATPase). Put plainly: Skeletal Myofibril ATPase Assay. It is filed as biochemical. The procedure:
FIG. 7 depicts the buffer preparation procedures of Buffer A and Buffer B for the skeletal myofibril ATPase assay described in Example 12. Buffers were stored on ice until use.
Example 12: Skeletal Myofibril ATPase Assay
as §1
Materials: The following stock solutions and reagents were used in the Skeletal Myofibril ATPase Assay:
Stock Solutions of pCa buffer. Combine PIPES, CaCl2, and EGTA solutions with 70 mL of water. Adjust pH to 7.0 and bring final volume to 100 mL.
Skeletal Myofibril ATPase Assay Procedure: BSA, ATP, NADH, PEP, and DTT solutions were thawed at room temperature, then transferred to ice. Pellet-frozen myofibrils were transferred with approximately twice the required volume into a sufficiently large tube and capped. Myofibrils were thawed by rolling in a water bath for approximately 15 min at room temperature and cooled on ice. Buffers A and B were prepared by adjusting volumes as necessary for required number of wells and stored on ice. 0.5 μL of the compounds to be assayed were added into wells. 25 μL of Buffer A was dispensed into the wells, followed by 25 μL of Buffer B. The wells were measured for absorbance at 340 nm, using a kinetic protocol in which the wells are read every 1.5-2 min for 45 min. The slope of the data was approximated by subtracting the minimum absorbance value from the maximum value for each well. This was accomplished either in the SoftMax Pro software or in a spreadsheet program such as Excel. Using GraphPad Prism 8.0, the data was normalized by assigning a value of 100% to the 1% DMSO vehicle wells. Typically, a normalized 0% value was simply assigned to a (Max−Min) value of 0. The normalized data was fit to a Four Parameter Logistic sigmoidal equation, constraining the bottom to be 0 or greater. Compounds of Table 1, 2, and 3 were tested and results of the assay appear in Tables 4a-4c. A=IC50 is less than or equal to 10 μM; B=IC50 is greater than 10 μM and less than 100 μM; C=IC50 is greater than 100 μM.

T1 sequence (P12883 whole entry): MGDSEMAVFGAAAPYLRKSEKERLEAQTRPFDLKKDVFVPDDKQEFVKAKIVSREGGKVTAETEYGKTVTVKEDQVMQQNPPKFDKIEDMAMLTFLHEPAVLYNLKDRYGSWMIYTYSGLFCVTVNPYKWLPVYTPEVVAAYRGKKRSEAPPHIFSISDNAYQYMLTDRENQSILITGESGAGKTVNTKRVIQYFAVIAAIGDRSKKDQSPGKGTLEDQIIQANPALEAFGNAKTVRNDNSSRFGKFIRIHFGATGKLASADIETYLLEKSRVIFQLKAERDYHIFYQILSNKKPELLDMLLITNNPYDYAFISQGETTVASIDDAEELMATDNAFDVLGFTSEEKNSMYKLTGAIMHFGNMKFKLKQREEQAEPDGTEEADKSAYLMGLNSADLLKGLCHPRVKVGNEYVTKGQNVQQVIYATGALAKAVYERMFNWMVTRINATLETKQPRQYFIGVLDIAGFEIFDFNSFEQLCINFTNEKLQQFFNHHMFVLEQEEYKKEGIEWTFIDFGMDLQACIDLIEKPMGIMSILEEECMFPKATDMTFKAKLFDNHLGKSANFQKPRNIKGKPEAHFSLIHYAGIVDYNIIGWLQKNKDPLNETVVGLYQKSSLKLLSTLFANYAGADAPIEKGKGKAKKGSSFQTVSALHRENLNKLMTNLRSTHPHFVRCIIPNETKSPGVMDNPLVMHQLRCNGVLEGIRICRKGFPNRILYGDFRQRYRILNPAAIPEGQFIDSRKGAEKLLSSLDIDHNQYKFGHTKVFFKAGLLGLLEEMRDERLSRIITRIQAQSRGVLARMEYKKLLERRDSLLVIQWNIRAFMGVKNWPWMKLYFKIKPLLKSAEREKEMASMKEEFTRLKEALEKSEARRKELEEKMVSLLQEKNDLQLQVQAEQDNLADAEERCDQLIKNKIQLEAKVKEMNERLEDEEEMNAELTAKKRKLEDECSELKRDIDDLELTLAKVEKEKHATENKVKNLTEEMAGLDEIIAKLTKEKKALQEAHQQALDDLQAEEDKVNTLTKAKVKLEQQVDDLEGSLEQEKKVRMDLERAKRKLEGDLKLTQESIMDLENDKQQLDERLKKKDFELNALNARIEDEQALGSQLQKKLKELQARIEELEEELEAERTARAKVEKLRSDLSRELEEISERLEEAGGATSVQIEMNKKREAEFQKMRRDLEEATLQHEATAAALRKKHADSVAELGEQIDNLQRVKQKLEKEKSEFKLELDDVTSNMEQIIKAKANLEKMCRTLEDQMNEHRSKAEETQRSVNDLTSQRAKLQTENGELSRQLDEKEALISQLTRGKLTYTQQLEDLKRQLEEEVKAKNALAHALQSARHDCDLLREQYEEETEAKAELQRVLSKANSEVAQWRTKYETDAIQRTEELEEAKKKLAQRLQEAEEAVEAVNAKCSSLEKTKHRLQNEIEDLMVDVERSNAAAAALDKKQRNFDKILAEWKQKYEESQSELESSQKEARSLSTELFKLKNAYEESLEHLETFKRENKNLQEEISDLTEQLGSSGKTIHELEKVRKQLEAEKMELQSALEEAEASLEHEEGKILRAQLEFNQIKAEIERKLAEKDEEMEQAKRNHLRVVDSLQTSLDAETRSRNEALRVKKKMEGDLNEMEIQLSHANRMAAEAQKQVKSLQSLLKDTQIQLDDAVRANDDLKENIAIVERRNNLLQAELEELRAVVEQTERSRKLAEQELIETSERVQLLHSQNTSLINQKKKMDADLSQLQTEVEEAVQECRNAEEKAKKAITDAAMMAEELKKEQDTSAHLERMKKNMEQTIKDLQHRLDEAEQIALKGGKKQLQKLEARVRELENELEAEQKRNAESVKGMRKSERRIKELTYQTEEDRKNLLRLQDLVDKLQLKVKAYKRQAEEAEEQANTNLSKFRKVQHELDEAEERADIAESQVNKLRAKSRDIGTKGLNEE
T1 sequence (P08590 whole entry partner): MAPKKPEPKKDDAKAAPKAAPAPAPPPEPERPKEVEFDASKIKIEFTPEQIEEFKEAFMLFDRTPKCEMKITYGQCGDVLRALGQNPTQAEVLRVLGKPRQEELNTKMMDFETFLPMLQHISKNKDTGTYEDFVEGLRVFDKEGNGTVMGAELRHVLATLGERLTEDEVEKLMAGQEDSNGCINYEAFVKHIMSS
T1 sequence (P10916 whole entry partner): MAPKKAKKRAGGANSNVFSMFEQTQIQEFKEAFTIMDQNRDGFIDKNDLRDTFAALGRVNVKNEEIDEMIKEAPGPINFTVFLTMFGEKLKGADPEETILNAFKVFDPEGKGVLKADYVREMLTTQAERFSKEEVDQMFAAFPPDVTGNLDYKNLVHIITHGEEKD

Consider `COc1ccc(-c2ccc(=O)n(CC(=O)Nc3cc(Cl)ccc3Cl)n2)cc1` [IIIb-10, N-(2,5-dichlorophenyl)-2-(3-(4-methoxyphenyl)-6-oxopyridazin-1(6H)-yl)acetamide], for which the half-maximal inhibitory concentration (IC50) is above 100 µM in assay [1] (Table 5C) and below 10 µM in assay [2] (Table 4C).

`CCNC(=O)Cn1nc(-c2ccc(OCC(F)F)cc2)ccc1=O` [II-7, 2-(3-(4-(2,2-difluoroethoxy)phenyl)-6-oxopyridazin-1(6H)-yl)-N-ethylacetamide]: the 50% inhibitory concentration (IC50) in assay [1] (Table 5B) is 10 to 100 µM; in assay [2] (Table 4B), below 10 µM.

Turning to `COc1ccc(-c2ccc(=O)n(CC(=O)NCc3cc(F)ccc3Cl)n2)cc1` [IIIa-7, N-(2-chloro-5-fluorobenzyl)-2-(3-(4-methoxyphenyl)-6-oxopyridazin-1(6H)-yl)acetamide], the concentration for half-maximal inhibition (IC50) is above 100 µM in assay [1] (Table 5C) and below 10 µM in assay [2] (Table 4C).

As for `Cn1ccc2c(NC(=O)Cn3nc(-c4ccc(Cl)cc4)ccc3=O)cccc21` [IIIc-20, 2-(3-(4-chlorophenyl)-6-oxopyridazin-1(6H)-yl)-N-(1-methyl-1H-indol-4-yl)acetamide], the IC50 was 10 to 100 µM in assay [1] (Table 5C) and below 10 µM in assay [2] (Table 4C).

For `CCNC(=O)Cn1nc(-c2ccc(NC(C)=O)cc2)ccc1=O` [II-2, 2-(3-(4-acetamidophenyl)-6-oxopyridazin-1(6H)-yl)-N-ethylacetamide], the values for the IC50 in assay [1] (Table 5B) and in assay [2] (Table 4B) were above 100 µM and below 10 µM, respectively.

With `CC(=O)Nc1ccc(-c2ccc(=O)n(CC(=O)NC(C)C)n2)cc1` [II-14, 2-(3-(4-acetamidophenyl)-6-oxopyridazin-1(6H)-yl)-N-isopropylacetamide], the values for the IC50 in assay [1] (Table 5B) and in assay [2] (Table 4B) were above 100 µM and 10 to 100 µM, respectively.

Consider `COc1ccc(-c2ccc(=O)n(CC(=O)NCc3ccccc3Cl)n2)cn1` [Compound I-5, N-(2-chlorobenzyl)-2-(3-(6-methoxypyridin-3-yl)-6-oxopyridazin-1(6H)-yl)acetamide], for which the half-inhibitory concentration (IC50) in assay [1] (Table 5A) is above 100 µM; in assay [2] (Table 4A) it was below 10 µM.

Consider `CCOc1ccc(-c2ccc(=O)n(CCNC(=O)CC3CCCC3)n2)cc1` [IIIb-43, 2-cyclopentyl-N-(2-(3-(4-ethoxyphenyl)-6-oxopyridazin-1(6H)-yl)ethyl)acetamide], for which the 50% inhibitory concentration (IC50) in assay [1] (Table 5C) and in assay [2] (Table 4C) was above 100 µM in each case.

In the case of `COc1ccc(-c2ccc(=O)n(CC(=O)NC3CCCC3)n2)cc1` [IIIb-23, N-cyclopentyl-2-(3-(4-methoxyphenyl)-6-oxopyridazin-1(6H)-yl)acetamide], the IC50 in assay [1] (Table 5C) is above 100 µM; in assay [2] (Table 4C) it was 10 to 100 µM.

For `COc1ccc(-c2ccc(=O)n(CC(=O)NCc3ccno3)n2)cc1` [IIIa-34, N-(isoxazol-5-ylmethyl)-2-(3-(4-methoxyphenyl)-6-oxopyridazin-1(6H)-yl)acetamide], the IC50 in assay [1] (Table 5C) and in assay [2] (Table 4C) was above 100 µM in each case.

As to `CCNC(=O)Cn1nc(-c2ccc(OC(C)C)nc2)ccc1=O` [Compound I-27, N-ethyl-2-(3-(6-isopropoxypyridin-3-yl)-6-oxopyridazin-1(6H)-yl)acetamide], the IC50 in assay [1] (Table 5A) and in assay [2] (Table 4A) was above 100 µM each time.

In the case of `COc1ccc(-c2ccc(=O)n(CC(=O)NC3CC3)n2)c(F)c1` [IIIb-58, N-cyclopropyl-2-(3-(2-fluoro-4-methoxyphenyl)-6-oxopyridazin-1(6H)-yl)acetamide], the concentration for half-maximal inhibition (IC50) in assay [1] (Table 5C) and in assay [2] (Table 4C) was above 100 µM each time.

For the compound `CCNC(=O)Cn1nc(-c2ccc(NC(C)(C)C)nc2)ccc1=O` [Compound I-53, 2-(3-(6-(tert-butylamino)pyridin-3-yl)-6-oxopyridazin-1(6H)-yl)-N-ethylacetamide], the figures for the IC50 in assay [1] (Table 5A) and in assay [2] (Table 4A) were above 100 µM and below 10 µM, respectively.

`CCNC(=O)Cn1nc(-c2ccc(N3CC4(C3)CS(=O)(=O)C4)nc2)ccc1=O` [Compound I-32, 2-(3-(6-(2,2-dioxido-2-thia-6-azaspiro[3.3]heptan-6-yl)pyridin-3-yl)-6-oxopyridazin-1(6H)-yl)-N-ethylacetamide]: the half-maximal inhibitory concentration (IC50) in assay [1] (Table 5A) and in assay [2] (Table 4A) was above 100 µM each time.

In the case of `CCNC(=O)Cn1nc(-c2ccc(OCC(F)(F)F)cc2)ccc1=O` [II-6, N-ethyl-2-(6-oxo-3-(4-(2,2,2-trifluoroethoxy)phenyl)pyridazin-1(6H)-yl)acetamide], the half-inhibitory concentration (IC50) in assay [1] (Table 5B) was above 100 µM; in assay [2] (Table 4B) it was below 10 µM.

Turning to `CC(C)(C#N)NC(=O)Cn1nc(-c2ccc(OC(F)F)nc2)ccc1=O` [Compound I-35, N-(2-cyanopropan-2-yl)-2-(3-(6-(difluoromethoxy)pyridin-3-yl)-6-oxopyridazin-1(6H)-yl)acetamide], the IC50 in assay [1] (Table 5A) is above 100 µM; in assay [2] (Table 4A), 10 to 100 µM.

As for `O=C(Cn1nc(-c2ccc(Cl)cc2)ccc1=O)Nc1cccc2[nH]ccc12` [IIIc-19, 2-(3-(4-chlorophenyl)-6-oxopyridazin-1(6H)-yl)-N-(1H-indol-4-yl)acetamide], the IC50 in assay [1] (Table 5C) was above 100 µM; in assay [2] (Table 4C), below 10 µM.

Turning to `COc1ccc(-c2ccc(=O)n(CC(=O)Nc3cc(Cl)ccc3Cl)n2)c(F)c1` [IIIb-13, N-(2,5-dichlorophenyl)-2-(3-(2-fluoro-4-methoxyphenyl)-6-oxopyridazin-1(6H)-yl)acetamide], the half-maximal inhibitory concentration (IC50) in assay [1] (Table 5C) is above 100 µM; in assay [2] (Table 4C), below 10 µM.

For the compound `CCC(C)(C)NC(=O)Cn1nc(-c2ccc(OC(F)F)nc2)ccc1=O` [Compound I-20, 2-(3-(6-(difluoromethoxy)pyridin-3-yl)-6-oxopyridazin-1(6H)-yl)-N-(tert-pentyl)acetamide], the IC50 was above 100 µM in assay [1] (Table 5A) and 10 to 100 µM in assay [2] (Table 4A).

As to `CCNC(=O)Cn1nc(-c2cnc(OCCOC(F)(F)F)nc2)ccc1=O` [Compound I-49, N-ethyl-2-(6-oxo-3-(2-(2-(trifluoromethoxy)ethoxy)pyrimidin-5-yl)pyridazin-1(6H)-yl)acetamide], the 50% inhibitory concentration (IC50) in assay [2] (Table 4A) lay within 10 to 100 µM.

`CCNC(=O)Cn1nc(-c2ccc(N3CC4CC(C3)O4)nc2)ccc1=O` [Compound I-43, 2-(3-(6-(6-oxa-3-azabicyclo[3.1.1]heptan-3-yl)pyridin-3-yl)-6-oxopyridazin-1(6H)-yl)-N-ethylacetamide]: in assay [2] (Table 4A), the IC50 was 10 to 100 µM.

Turning to `CC(=O)Nc1ccc(-c2ccc(=O)n(CC(=O)NCc3ccccc3Cl)n2)cc1` [II-8, 2-(3-(4-acetamidophenyl)-6-oxopyridazin-1(6H)-yl)-N-(2-chlorobenzyl) acetamide], in assay [2] (Table 4B), the IC50 was below 10 µM.

For `CC[C@H](C)NC(=O)Cn1nc(-c2ccc(OC(F)F)nc2)ccc1=O` [Compound I-67, (S)-N-(sec-butyl)-2-(3-(6-(difluoromethoxy)pyridin-3-yl)-6-oxopyridazin-1(6H)-yl)acetamide], the IC50 in assay [2] (Table 4A) was below 10 µM.

In assay [2] (Table 4A), `CCNC(=O)Cn1nc(-c2ccc(N3CCCC3C(F)(F)F)nc2)ccc1=O` (stereo not shown) [Compound I-48, N-ethyl-2-(6-oxo-3-(6-(2-(trifluoromethyl)pyrrolidin-1-yl)pyridin-3-yl)pyridazin-1(6H)-yl)acetamide] gave an IC50 below 10 µM.

On to `CCNC(=O)Cn1nc(-c2ccc(N3CC(COC(F)(F)F)C3)nc2)ccc1=O` [Compound I-40, N-ethyl-2-(6-oxo-3-(6-(3-((trifluoromethoxy)methyl)azetidin-1-yl)pyridin-3-yl)pyridazin-1(6H)-yl)acetamide], for which the half-inhibitory concentration (IC50) in assay [2] (Table 4A) lay in the range of 10 to 100 µM.

Consider `O=C(Cn1nc(-c2ccc(NC34CC(C3)C4)nc2)ccc1=O)N1CCC1` [Compound I-39, 2-(2-(azetidin-1-yl)-2-oxoethyl)-6-(6-(bicyclo[1.1.1]pentan-1-ylamino)pyridin-3-yl)pyridazin-3(2H)-one], for which the concentration for half-maximal inhibition (IC50) in assay [2] (Table 4A) lay in the range of 10 to 100 µM.

Compound `CCNC(=O)Cn1nc(-c2ccc(NC34CCC(CC3)CC4)nc2)ccc1=O` [Compound I-41, 2-(3-(6-(bicyclo[2.2.2]octan-1-ylamino)pyridin-3-yl)-6-oxopyridazin-1(6H)-yl)-N-ethylacetamide] had a 50% inhibitory concentration (IC50) in assay [2] (Table 4A) of 10 to 100 µM.
